The values that follow come from ChEMBL document CHEMBL1152560, “Substituted 2-arylbenzothiazoles as kinase inhibitors: hit-to-lead optimization” (Bioorg Med Chem, 2009).

The target in experiment [1] is CDK1/Cyclin A (Homo sapiens) (UniProt P06493+P20248). In words: Residual activity of CDK1/Cyclin A at 1 uM by microplate scintillation counting. Format: protein-complex assay.
Experiment [2] has as its target Mitogen-activated protein kinase 8 (Homo sapiens) (UniProt P45983). The experiment can be described thus: Residual activity of JNK1 at 1 uM by microplate scintillation counting.
Experiment [3] addresses Insulin receptor (Homo sapiens) (UniProt P06213). In words: Residual activity of INSR at 1 uM by microplate scintillation counting.
Experiment [4] concerns the target T1, Ephrin type-A receptor 8 (Homo sapiens) (UniProt P29322).
T1 sequence (whole entry): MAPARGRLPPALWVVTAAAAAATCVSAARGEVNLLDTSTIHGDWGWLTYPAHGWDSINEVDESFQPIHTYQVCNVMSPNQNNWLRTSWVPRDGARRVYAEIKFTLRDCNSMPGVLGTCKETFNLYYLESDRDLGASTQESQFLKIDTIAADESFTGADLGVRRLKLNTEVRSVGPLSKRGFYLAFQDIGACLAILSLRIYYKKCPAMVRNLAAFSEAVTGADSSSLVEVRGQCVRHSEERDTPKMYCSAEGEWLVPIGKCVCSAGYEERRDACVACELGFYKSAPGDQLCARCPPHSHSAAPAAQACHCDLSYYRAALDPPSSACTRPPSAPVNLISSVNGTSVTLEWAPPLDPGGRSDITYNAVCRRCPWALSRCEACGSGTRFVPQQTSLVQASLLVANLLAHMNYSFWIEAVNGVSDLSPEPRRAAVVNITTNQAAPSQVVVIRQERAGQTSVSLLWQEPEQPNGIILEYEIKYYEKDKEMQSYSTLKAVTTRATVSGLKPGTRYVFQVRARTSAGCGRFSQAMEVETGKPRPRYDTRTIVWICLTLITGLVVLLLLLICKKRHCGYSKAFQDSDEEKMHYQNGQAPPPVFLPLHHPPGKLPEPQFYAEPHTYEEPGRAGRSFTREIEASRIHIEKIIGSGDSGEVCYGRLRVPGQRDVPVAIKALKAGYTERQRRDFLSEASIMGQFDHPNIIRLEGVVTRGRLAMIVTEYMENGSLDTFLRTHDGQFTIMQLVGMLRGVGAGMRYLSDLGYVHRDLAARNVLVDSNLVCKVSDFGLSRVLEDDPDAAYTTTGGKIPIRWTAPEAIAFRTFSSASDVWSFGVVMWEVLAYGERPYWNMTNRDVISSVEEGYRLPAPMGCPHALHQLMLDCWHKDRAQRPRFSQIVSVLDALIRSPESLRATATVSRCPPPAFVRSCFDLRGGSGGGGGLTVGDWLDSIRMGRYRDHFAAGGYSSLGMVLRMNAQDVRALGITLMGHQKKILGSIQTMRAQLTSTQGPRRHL
The experiment can be described thus: Residual activity of EPHA8 at 0.1 uM by microplate scintillation counting.

The target in experiment [5] is Cyclin-dependent kinase 5/CDK5 activator 1 (Homo sapiens) (UniProt Q00535+Q15078). In words: Residual activity of CDK5/p35NCK at 1 uM by microplate scintillation counting. Format: protein-complex assay.
Sequence of Cyclin-dependent kinase 5/CDK5 activator 1 (Homo sapiens) (Q00535 whole entry): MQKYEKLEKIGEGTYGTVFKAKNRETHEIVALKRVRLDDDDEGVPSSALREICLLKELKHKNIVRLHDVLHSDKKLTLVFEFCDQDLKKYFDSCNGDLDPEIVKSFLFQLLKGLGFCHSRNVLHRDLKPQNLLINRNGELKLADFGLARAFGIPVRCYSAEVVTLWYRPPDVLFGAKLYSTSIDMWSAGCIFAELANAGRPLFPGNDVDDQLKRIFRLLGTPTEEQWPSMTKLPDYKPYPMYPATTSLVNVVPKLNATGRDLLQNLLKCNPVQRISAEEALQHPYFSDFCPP
Sequence of Cyclin-dependent kinase 5/CDK5 activator 1 (Homo sapiens) (Q15078 99-307 partner limits assumed): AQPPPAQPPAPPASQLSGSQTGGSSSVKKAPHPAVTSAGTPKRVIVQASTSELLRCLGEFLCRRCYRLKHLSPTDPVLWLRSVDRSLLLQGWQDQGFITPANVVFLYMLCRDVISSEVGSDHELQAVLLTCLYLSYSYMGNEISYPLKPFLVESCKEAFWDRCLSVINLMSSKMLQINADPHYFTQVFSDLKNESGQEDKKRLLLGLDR
Experiment [6] addresses Mast/stem cell growth factor receptor Kit (Homo sapiens) (UniProt P10721). The experiment can be described thus: Residual activity of wild type KIT at 10 uM by microplate scintillation counting.
In experiment [7] the target is T2, Megakaryocyte-associated tyrosine-protein kinase (Homo sapiens) (UniProt P42679).
T2 sequence (whole entry): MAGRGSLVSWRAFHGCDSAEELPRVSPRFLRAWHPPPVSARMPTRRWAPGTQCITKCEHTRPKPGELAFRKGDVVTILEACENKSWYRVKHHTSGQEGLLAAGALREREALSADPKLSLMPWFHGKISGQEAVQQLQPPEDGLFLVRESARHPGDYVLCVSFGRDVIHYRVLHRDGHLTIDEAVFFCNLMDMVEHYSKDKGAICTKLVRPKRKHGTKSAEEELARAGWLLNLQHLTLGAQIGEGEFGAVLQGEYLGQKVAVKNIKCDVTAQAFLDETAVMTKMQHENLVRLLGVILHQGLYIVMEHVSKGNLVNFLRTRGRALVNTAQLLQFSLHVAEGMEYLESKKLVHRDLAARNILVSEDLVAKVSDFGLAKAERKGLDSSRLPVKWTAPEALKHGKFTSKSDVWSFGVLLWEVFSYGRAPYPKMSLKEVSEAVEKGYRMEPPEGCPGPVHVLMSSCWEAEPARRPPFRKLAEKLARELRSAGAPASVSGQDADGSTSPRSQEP
The experiment can be described thus: Residual activity of MATK at 10 uM by microplate scintillation counting.

In experiment [8] the target is Tyrosine-protein kinase receptor UFO (Homo sapiens) (UniProt P30530). In words: Residual activity of AXL at 1 uM by microplate scintillation counting.
Sequence of Tyrosine-protein kinase receptor UFO (Homo sapiens) (P30530 whole entry): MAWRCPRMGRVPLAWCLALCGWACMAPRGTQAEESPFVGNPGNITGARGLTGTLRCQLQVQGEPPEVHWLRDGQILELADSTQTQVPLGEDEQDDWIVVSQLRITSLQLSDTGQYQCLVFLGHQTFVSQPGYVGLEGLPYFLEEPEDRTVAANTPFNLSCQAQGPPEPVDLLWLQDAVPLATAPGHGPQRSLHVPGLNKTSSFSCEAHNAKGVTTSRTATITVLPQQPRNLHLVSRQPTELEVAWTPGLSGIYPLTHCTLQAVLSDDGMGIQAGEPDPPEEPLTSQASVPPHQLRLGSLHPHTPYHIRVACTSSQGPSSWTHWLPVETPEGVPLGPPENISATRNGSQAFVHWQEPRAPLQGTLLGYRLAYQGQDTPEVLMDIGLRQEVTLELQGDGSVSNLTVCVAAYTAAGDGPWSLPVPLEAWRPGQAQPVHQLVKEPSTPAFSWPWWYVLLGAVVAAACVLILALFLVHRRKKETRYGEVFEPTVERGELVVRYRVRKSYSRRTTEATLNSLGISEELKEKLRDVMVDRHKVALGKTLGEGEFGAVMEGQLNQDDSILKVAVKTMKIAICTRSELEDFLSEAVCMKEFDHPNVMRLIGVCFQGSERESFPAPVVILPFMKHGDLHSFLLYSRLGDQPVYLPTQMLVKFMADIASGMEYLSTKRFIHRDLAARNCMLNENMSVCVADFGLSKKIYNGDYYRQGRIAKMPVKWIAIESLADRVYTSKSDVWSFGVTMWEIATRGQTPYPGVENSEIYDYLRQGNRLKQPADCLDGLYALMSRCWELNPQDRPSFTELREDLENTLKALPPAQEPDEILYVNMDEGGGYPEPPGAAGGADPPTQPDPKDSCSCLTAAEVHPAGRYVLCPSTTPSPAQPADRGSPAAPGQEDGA
For experiment [9], the target named is RAC-gamma serine/threonine-protein kinase (Homo sapiens) (UniProt Q9Y243). The experiment can be described thus: Residual activity of AKT3 at 0.1 uM by microplate scintillation counting.
Sequence of RAC-gamma serine/threonine-protein kinase (Homo sapiens) (Q9Y243 whole entry): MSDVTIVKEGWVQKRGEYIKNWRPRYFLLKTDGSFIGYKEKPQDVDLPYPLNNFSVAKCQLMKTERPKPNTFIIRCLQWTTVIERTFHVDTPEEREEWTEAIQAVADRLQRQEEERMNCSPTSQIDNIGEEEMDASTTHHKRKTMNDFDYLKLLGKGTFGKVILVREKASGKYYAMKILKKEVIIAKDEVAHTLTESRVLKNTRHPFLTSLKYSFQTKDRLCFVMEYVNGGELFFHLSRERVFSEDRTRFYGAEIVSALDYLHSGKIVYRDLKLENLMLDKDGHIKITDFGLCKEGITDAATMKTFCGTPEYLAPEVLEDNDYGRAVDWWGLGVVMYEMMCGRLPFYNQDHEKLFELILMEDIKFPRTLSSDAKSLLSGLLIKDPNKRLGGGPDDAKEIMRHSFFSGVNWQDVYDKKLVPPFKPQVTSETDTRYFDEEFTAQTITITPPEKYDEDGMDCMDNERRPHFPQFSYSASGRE

Sequence of Mast/stem cell growth factor receptor Kit (Homo sapiens) (P10721 whole entry): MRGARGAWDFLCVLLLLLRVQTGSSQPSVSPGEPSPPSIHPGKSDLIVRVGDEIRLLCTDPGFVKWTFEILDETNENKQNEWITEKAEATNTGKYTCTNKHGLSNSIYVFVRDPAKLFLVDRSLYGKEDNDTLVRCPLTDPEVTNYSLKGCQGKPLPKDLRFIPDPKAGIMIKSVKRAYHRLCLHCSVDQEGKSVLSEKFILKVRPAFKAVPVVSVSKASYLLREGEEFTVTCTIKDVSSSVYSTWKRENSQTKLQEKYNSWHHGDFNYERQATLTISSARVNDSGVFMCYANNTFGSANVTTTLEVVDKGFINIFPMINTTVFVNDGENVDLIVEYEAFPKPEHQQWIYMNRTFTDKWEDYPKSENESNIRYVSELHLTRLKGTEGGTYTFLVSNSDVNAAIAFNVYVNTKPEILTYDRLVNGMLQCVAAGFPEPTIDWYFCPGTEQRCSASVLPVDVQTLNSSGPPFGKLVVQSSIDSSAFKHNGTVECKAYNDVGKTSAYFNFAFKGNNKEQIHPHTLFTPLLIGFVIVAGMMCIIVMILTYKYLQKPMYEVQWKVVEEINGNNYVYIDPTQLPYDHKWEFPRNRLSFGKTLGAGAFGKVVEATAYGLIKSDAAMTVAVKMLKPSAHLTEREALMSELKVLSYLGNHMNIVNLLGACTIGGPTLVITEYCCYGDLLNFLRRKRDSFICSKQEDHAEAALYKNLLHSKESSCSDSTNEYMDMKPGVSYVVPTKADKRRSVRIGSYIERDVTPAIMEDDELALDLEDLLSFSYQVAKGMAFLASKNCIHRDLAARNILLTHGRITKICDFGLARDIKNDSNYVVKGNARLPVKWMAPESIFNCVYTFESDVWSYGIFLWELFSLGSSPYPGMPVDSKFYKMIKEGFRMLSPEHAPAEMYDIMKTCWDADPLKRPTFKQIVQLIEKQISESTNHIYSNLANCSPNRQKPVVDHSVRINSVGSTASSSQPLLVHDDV
Sequence of Mitogen-activated protein kinase 8 (Homo sapiens) (P45983 whole entry): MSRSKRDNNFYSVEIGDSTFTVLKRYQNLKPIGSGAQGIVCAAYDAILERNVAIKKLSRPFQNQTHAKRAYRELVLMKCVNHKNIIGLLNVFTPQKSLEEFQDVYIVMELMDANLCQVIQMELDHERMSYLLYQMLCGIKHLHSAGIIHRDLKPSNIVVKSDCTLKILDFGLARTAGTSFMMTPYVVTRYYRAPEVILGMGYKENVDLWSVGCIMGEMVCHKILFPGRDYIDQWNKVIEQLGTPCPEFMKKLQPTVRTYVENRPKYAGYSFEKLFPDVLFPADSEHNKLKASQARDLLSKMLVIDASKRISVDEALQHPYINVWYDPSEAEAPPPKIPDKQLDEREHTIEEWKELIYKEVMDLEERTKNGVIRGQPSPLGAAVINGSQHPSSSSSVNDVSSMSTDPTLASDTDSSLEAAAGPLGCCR
Sequence of CDK1/Cyclin A (Homo sapiens) (P06493 whole entry, looked up): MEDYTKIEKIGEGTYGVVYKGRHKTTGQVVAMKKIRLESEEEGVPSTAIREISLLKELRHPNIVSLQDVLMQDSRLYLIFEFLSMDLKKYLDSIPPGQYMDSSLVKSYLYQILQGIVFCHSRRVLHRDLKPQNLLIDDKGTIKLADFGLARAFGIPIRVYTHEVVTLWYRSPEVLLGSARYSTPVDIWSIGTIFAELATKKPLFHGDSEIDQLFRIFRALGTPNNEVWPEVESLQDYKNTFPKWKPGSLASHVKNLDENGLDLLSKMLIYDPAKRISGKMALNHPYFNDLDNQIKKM
Sequence of CDK1/Cyclin A (Homo sapiens) (P20248 whole entry, looked up): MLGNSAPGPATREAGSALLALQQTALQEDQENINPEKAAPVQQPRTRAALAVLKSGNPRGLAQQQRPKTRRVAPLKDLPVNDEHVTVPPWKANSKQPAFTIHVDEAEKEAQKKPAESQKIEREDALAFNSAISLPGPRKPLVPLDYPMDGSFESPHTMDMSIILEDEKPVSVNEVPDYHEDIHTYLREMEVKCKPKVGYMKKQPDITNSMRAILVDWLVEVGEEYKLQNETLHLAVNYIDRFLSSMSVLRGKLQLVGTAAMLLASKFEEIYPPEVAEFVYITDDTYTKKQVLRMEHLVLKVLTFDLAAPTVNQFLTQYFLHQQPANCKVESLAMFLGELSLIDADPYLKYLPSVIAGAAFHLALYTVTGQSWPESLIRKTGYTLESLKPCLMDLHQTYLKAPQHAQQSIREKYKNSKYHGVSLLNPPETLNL

Regarding `COc1cc2c(Oc3ccc(-c4nc5ccccc5s4)cc3)ncnc2cc1OCCCN1CCN(C)CC1`, the residual activity in experiment [1] came out at 101%; in experiment [2], 142%; in experiment [3] it was 98%; in experiment [4] it was 109%; in experiment [5], 85%; in experiment [6], 30%. The residual activity in [7] turned out to be 377%; in experiment [8], 88%; in experiment [9] it was 96%.
Regarding `COc1cc2c(Oc3ccc(-c4nc5ccccc5s4)cc3)ncnc2cc1OCCCN1CCCC1`, the residual activity in experiment [1] came out at 111%; in [2], 142%; in experiment [3], 95%; in [4], 108%; in experiment [5], 97%; in experiment [6], 31%. In addition, the residual activity turned out to be 267% in [7], 71% in experiment [8] and 100% in [9].
As to `COc1cc2c(Oc3ccc(-c4nc5ccccc5s4)cc3F)ncnc2cc1OCCCN1CCN(C)CC1`, the residual activity in experiment [1] was 102%; in experiment [2] it was 154%; in [3] it was 97%; in [4], 101%; in experiment [5] it was 86%; in experiment [6], 32%. In addition, the results for the residual activity in experiment [7], in experiment [8] and in experiment [9] were 215%, 89% and 107%, respectively.
